Test [1] concerns T1, PAL from Spirulina platensis (S. platensis PAL).
T1 construct: native enzyme purified from algal culture (acetone precipitation, Sephadex G-200, DEAE-cellulose); 64 kDa band on SDS-PAGE
Nature of the test: reverse hydroamination assay, L-phenylalanine formation at […] nm. The test is classed as biochemical, Limnospira platensis. The conditions noted are these: co-substrate NH4OH (stock 5 M); Tris-HCl pH 8.9 (standard assay); 37 °C.

The test system of test [2] is T2, PAL from Anabaena flos-aquae (A. flos-aquae PAL).
T2 construct: native enzyme purified from algal culture (acetone precipitation, Sephadex G-200, DEAE-cellulose); 64 kDa band on SDS-PAGE
Described as above. The conditions noted are these: co-substrate NH4OH (stock 5 M); Tris-HCl pH 8.9; standard assay at 37 °C. The test is classed as biochemical, Dolichospermum flosaquae.

Test [3] concerns T1, PAL from Spirulina platensis (S. platensis PAL). Nature of the test: forward deamination assay, cinnamic acid absorbance at […] nm. It counts as biochemical, Limnospira platensis. The conditions noted are these: Tris-HCl pH 8.9; standard assay at 37 °C.
Test [4] relates to T2, PAL from Anabaena flos-aquae (A. flos-aquae PAL). The description is as above. The test is classed as biochemical, Dolichospermum flosaquae. The conditions noted are these: Tris-HCl pH 8.9; standard assay at 37 °C.

Turning to `O=C(O)/C=C/c1ccccc1` [trans-cinnamic acid], the Michaelis-Menten constant (Km) in test [1] stood at 610 µM; in test [2], 300 µM.

For the compound `N[C@@H](Cc1ccccc1)C(=O)O` [L-phenylalanine], the Km in test [3] was determined as 1.64 mM; in test [4] it was 1.5 mM.

Values taken from article PMC9728195, “Purification and Characterization of Anabaena flos-aquae Phenylalanine Ammonia-Lyase as a Novel Approach for Myristicin Biotransformation” (Journal of Microbiology and Biotechnology, 2019).
